Here are results for 32 compounds from patent US10106552B2, “Compounds inhibiting eukaryotic elongation factor 2 kinase activity” (Longevica Pharmaceuticals, Inc., priority 2013, dated 2018).

pIC50: −log10 of the molar value.

This assay deals with recombinant eEF2K (Homo sapiens (Human), UniProt O00418). Description: eEF2K Kinase-Glo luminescent kinase assay (ATP consumption, peptide substrate). Particulars: average of two to four separate experimental measurements, each the average of three replicates. The class given is biochemical. The procedure:
The following compounds were synthesized using the general methods described above. In the table below, IC50 values are in μM and are the average of two to four separate experimental measurements, each consisting in turn of the average of three replicates. IC50 values were calculated using the methods as described in Example 2. MW was determined by mass spectroscopy analysis, and is expressed as M+1.
To determine the IC50 of compounds of the invention, recombinant eEF2K was diluted in an assay buffer in the presence of calmodulin, a calcium-binding messenger protein expressed in eukaryotic cells, and incubated with peptide substrate Ac-RKKYKFNEDTERRRFL in the presence of Adenosine-5′-triphosphate (ATP) and the test compound. The peptide substrate is efficiently and specifically phosphorylated by eEF2K at a single substrate concentration of 100 μM. Using this peptide, eEF2K activity can be quantitatively determined using a Kinase-Glo® luminescent kinase assay kit (Promega) that measures ATP consumption by EF2K during phosphorylation of the substrate. ATP conversion was recorded using Perkin-Elmer Victor Luminometer. Data was plotted using GraphPad software and IC50 was calculated using 3-parameter sigmoidal curve fit.
As to `CC1(C)CCc2nc3sc(C(N)=O)c(N)c3c(-c3ccsc3)c2C1` [Compound 20, 3-Amino-6,6-dimethyl-4-thiophen-3-yl-5,6,7,8-tetrahydro-thieno[2,3-b] quinoline-2-carboxylic acid amide], the pIC50 was 5.66.

Regarding `CC1(C)CCc2c(nc3sc(C(N)=O)c(N)c3c2-c2ccc(Cl)o2)C1` [Compound 7, 3-Amino-4-(5-chloro-furan-2-yl)-7,7-dimethyl-5,6,7,8-tetrahydro-thieno[2,3-b]quinoline-2-carboxylic acid amide], the pIC50 is 5.80. For `CC1(C)C/C(=C\c2ccoc2)c2nc3sc(C(N)=O)c(N)c3c(-c3ccoc3)c2C1` [Compound 22, 3-Amino-4-furan-3-yl-8-furan-3-ylmethylene-6,6-dimethyl-5,6,7,8-tetrahydro-thieno[2,3-b]quinoline-2-carboxylic acid amide] the value was 5.22.

`CCCC1C/C(=C\c2ccc(Cl)o2)c2nc3sc(C(N)=O)c(N)c3c(-c3ccc(Cl)o3)c2C1` (centres unmarked) [Compound 5, 3-Amino-4-(5-chloro-furan-2-yl)-8-(5-chloro-furan-2-ylmethylene)-6-propyl-5,6,7,8-tetrahydro-thieno[2,3-b]quinoline-2-carboxylic acid amide]: the pIC50 is 5.22. With `CC1(C)CCc2c1nc1sc(C(N)=O)c(N)c1c2-c1cncs1` [Compound 28, 3-Amino-7,7-dimethyl-4-thiazol-5-yl-6,7-dihydro-5H-1-thia-8-aza-s-indacene-2-carboxylic acid amide], the pIC50 is 6.40. The value for `Cn1cc(-c2c3c(nc4sc(C(N)=O)c(N)c24)C(C)(C)CCC3)cn1` [Compound 39, 3-Amino-8,8-dimethyl-4-(1-methyl-1H-pyrazol-4-yl)-5,6,7,8-tetrahydro-thieno[2,3-b]quinoline-2-carboxylic acid amide] was 5.85. The value for `CC1(C)C/C(=C\c2cccc(Cl)c2F)c2nc3sc(C(N)=O)c(N)c3c(-c3cccc(Cl)c3F)c2C1` [Compound 14, 3-Amino-8-(3-chloro-2-fluoro-benzylidene)-4-(3-chloro-2-fluoro-phenyl)-6,6-dimethyl-5,6,7,8-tetrahydro-thieno[2,3-b]quinoline-2-carboxylic acid amide] was 2.30. For `CC1(C)CCc2c1nc1sc(C(N)=O)c(N)c1c2-c1ccco1` [Compound 15, 3-Amino-4-furan-2-yl-7,7-dimethyl-6,7-dihydro-5H-1-thia-8-aza-s-indacene-2-carboxylic acid amide] the value was 5.60; for `Cc1csc(-c2c3c(nc4sc(C(N)=O)c(N)c24)C(C)(C)CC3)n1` [Compound 32, 3-Amino-7,7-dimethyl-4-(4-methyl-thiazol-2-yl)-6,7-dihydro-5H-1-thia-8-aza-s-indacene-2-carboxylic acid amide], 5.42; for `CC1CC(C)(C)Cc2nc3sc(C(N)=O)c(N)c3c(-c3ccco3)c21` (centres unmarked) [Compound 16, 3-Amino-4-furan-2-yl-5,7,7-trimethyl-5,6,7,8-tetrahydro-thieno[2,3-b]quinoline-2-carboxylic acid amide], 5.34.

For the compound `CC1(C)CCc2c1nc1sc(C(N)=O)c(N)c1c2-c1cscn1` [Compound 30, 3-Amino-7,7-dimethyl-4-thiazol-4-yl-6,7-dihydro-5H-1-thia-8-aza-s-indacene-2-carboxylic acid amide], the pIC50 was 5.47. With `NC(=O)c1sc2nc3c(c(-c4ccc(Cl)o4)c2c1N)CC(c1ccccc1)C/C3=C\c1ccc(Cl)o1` (centres unmarked) [Compound 3, 3-Amino-4-(5-chloro-furan-2-yl)-8-(5-chloro-furan-2-ylmethylene)-6-phenyl-5,6,7,8-tetrahydro-thieno[2,3-b]quinoline-2-carboxylic acid amide], the pIC50 is 2.00. Regarding `CC1(C)CCCc2c1nc1sc(C(N)=O)c(N)c1c2-c1cncs1` [Compound 38, 3-Amino-8,8-dimethyl-4-thiazol-5-yl-5,6,7,8-tetrahydro-thieno[2,3-b]quinoline-2-carboxylic acid amide], the pIC50 is 6.52.

In the case of `Cc1ncsc1-c1c2c(nc3sc(C(N)=O)c(N)c13)C(C)(C)CC2` [Compound 40, 3-Amino-7,7-dimethyl-4-(4-methyl-thiazol-5-yl)-6,7-dihydro-5H-1-thia-8-aza-s-indacene-2-carboxylic acid amide], the pIC50 was 6.40.

On to `CC1(C)CCc2c1nc1sc(C(N)=O)c(N)c1c2-c1cc(Br)cs1` [Compound 25, 3-Amino-4-(4-bromo-thiophen-2-yl)-7,7-dimethyl-6,7-dihydro-5H-1-thia-8-aza-s-indacene-2-carboxylic acid amide], for which the pIC50 is 6.10. In the case of `CC1(C)CCCc2c1nc1sc(C(N)=O)c(N)c1c2-c1cc(Br)co1` [Compound 37, 3-Amino-4-(4-bromo-furan-2-yl)-8,8-dimethyl-5,6,7,8-tetrahydro-thieno[2,3-b]quinoline-2-carboxylic acid amide], the pIC50 is 6.05. For `CC1(C)CCc2c1nc1sc(C(N)=O)c(N)c1c2-c1ccsc1` [Compound 18, 3-Amino-7,7-dimethyl-4-thiophen-3-yl-6,7-dihydro-5H-1-thia-8-aza-s-indacene-2-carboxylic acid amide], the pIC50 is 6.05. With `CC1(C)CCc2c1nc1sc(C(N)=O)c(N)c1c2-c1ccc(Cl)s1` [Compound 24, 3-Amino-4-(5-chloro-thiophen-2-yl)-7,7-dimethyl-6,7-dihydro-5H-1-thia-8-aza-s-indacene-2-carboxylic acid amide], the pIC50 was 5.85. For `CC1(C)CCc2c1nc1sc(C(N)=O)c(N)c1c2-c1ccoc1` [Compound 17, 3-Amino-4-furan-3-yl-7,7-dimethyl-6,7-dihydro-5H-1-thia-8-aza-s-indacene-2-carboxylic acid amide], the pIC50 was 5.96. For `CCC(C)c1c2c(nc3sc(C(N)=O)c(N)c13)C(C)(C)CC2` (centres unmarked) [Compound 26, 3-Amino-4-sec-butyl-7,7-dimethyl-6,7-dihydro-5H-1-thia-8-aza-s-indacene-2-carboxylic acid amide] the value was 6.00; for `CC1(C)CCc2c(nc3sc(C(N)=O)c(N)c3c2-c2ccco2)C1` [Compound 10, 3-Amino-4-furan-2-yl-7,7-dimethyl-5,6,7,8-tetrahydro-thieno[2,3-b]quinoline-2-carboxylic acid amide], 6.00.

As for `CC1CC(C)(C)Cc2nc3sc(C(N)=O)c(N)c3c(-c3cncs3)c21` (centres unmarked) [Compound 36, 3-Amino-5,7,7-trimethyl-4-thiazol-5-yl-5,6,7,8-tetrahydro-thieno[2,3-b]quinoline-2-carboxylic acid amide], the pIC50 was 6.40. In the case of `NC(=O)c1sc2nc3c(c(-c4ccc(Cl)o4)c2c1N)CCCC3c1ccccc1` (centres unmarked) [Compound 13, 3-Amino-4-(5-chloro-furan-2-yl)-8-phenyl-5,6,7,8-tetrahydro-thieno[2,3-b]quinoline-2-carboxylic acid amide], the negative-log IC50 (pIC50) was 4.51. The value for `CC1(C)CCc2nc3sc(C(N)=O)c(N)c3c(-c3ccc(Cl)o3)c2C1` [Compound 2, 3-Amino-4-(5-chloro-furan-2-yl)-6,6-dimethyl-5,6,7,8-tetrahydro-thieno[2,3-b]quinoline-2-carboxylic acid amide] was 5.96; that for `CC1(C)CCc2c1nc1sc(C(N)=O)c(N)c1c2-c1ccc(Br)s1` [Compound 27, 3-Amino-4-(5-bromo-thiophen-2-yl)-7,7-dimethyl-6,7-dihydro-5H-1-thia-8-aza-s-indacene-2-carboxylic acid amide] was 5.82.

For `CC1(C)CCc2c1nc1sc(C(N)=O)c(N)c1c2-c1cocn1` [Compound 31, 3-Amino-7,7-dimethyl-4-oxazol-4-yl-6,7-dihydro-5H-1-thia-8-aza-s-indacene-2-carboxylic acid amide], the pIC50 was 5.46. For `NC(=O)c1sc2nc3c(c(-c4cncs4)c2c1N)CCCC31CCCC1` [Compound 42] the value was 5.51. As to `CC1(C)CCCc2c1nc1sc(C(N)=O)c(N)c1c2-c1ccc(Cl)o1` [Compound 8, 3-Amino-4-(5-chloro-furan-2-yl)-8,8-dimethyl-5,6,7,8-tetrahydro-thieno[2,3-b]quinoline-2-carboxylic acid amide], the pIC50 is 5.33. For `CC1(C)CCc2nc3sc(C(N)=O)c(N)c3c(-c3ccoc3)c2C1` [Compound 21, 3-Amino-4-furan-3-yl-6,6-dimethyl-5,6,7,8-tetrahydro-thieno[2,3-b]quinoline-2-carboxylic acid amide] the value was 5.70; for `CC1(C)CCc2nc3sc(C(N)=O)c(N)c3c(-c3ccco3)c2C1` [Compound 6, 3-Amino-4-furan-2-yl-6,6-dimethyl-5,6,7,8-tetrahydro-thieno[2,3-b]quinoline-2-carboxylic acid amide], 5.92.

On to `CC1(C)CCc2c1nc1sc(C(N)=O)c(N)c1c2C1CC1` [Compound 19, 3-Amino-4-cyclopropyl-7,7-dimethyl-6,7-dihydro-5H-1-thia-8-aza-s-indacene-2-carboxylic acid amide], for which the pIC50 was 5.96. `CC1(C)CCc2c(nc3sc(C(N)=O)c(N)c3c2-c2ccc(Cl)c(Cl)c2)C1` [Compound 11, 3-Amino-4-(3,4-dichloro-phenyl)-7,7-dimethyl-5,6,7,8-tetrahydro-thieno[2,3-b]quinoline-2-carboxylic acid amide]: the pIC50 was 4.64.
